Measurements from US20190275012A9, “SUBSTITUTED THIAZOLO-PYRIDINE COMPOUNDS AS MALT1 INHIBITORS” (Lupin Limited, priority 2016, published 2019).

Experiments:
OCI-Ly-10 cells = experiment: Anticancer assay (14 days), cell viability by CCK-8; format: cell-based; conditions: Homo sapiens, OCI-Ly10, 336 h, 14 days treatment, fresh treatment every 5th day, CCK-8 viability, read-out: Ly-10 (14d) inhibition IC50
Procedure: OCI-Ly-10 cells (UHN, Canada) seeded in culture media (IMDM+20% FBS) in 96-well plates were treated with various concentrations of the test compounds. Cells were treated for a period of 14 days (13-15 days depending on the confluency of cells) with fresh treatments every 5th day. After the first treatment, for all subsequent treatments, the cells were centrifuged, the spent media was removed and fresh media containing the test compound was added. Cell viability was assessed using CCK-8 kit (Dojindo Laboratories, China) as per manufacturer's instructions. Plates were read in colorimeter and absorbance was detected. (Detection at 450 nm; Background correction at 650 nm). % inhibition was calculated relative to the samples containing media with 0.1% DMSO alone as per the following formula

[1] = system: NF-kB transcriptional activity in HEK-293-NF-kB-Luc cell line overexpressing MALT1; experiment: NF-kB reporter assay (luciferase, MALT1 stably overexpressed); format: cell-based; conditions: Homo sapiens, 24 h, HEK-293-NF-kB-Luc cells stably overexpressing MALT1, 24 h treatment, Bright Glo luminescence; read-out: NF-kB inhibition IC50
In short: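 HEK-293-NF-κB-Luc cells stably overexpressing MALT1 were seeded overnight, then exposed to test compounds for 24 h. Bright Glo added 10 min at ambient temperature and luminescence read; % inhibition calculated against 0.1% DMSO controls.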

full length MALT1 enzyme = biological target: T1, full length MALT1 enzyme (Homo sapiens, UniProt Q9UDY8); experiment: MALT1 biochemical assay (fluorescence based, Ac-Leu-Arg-Ser-Arg-AMC cleavage); conditions: full length MALT1 protein, 2 h pre-incubation at RT, tetrapeptide substrate Ac-Leu-Arg-Ser-Arg-AMC, read-out: Malt 1 inhibition IC50
T1 construct: a fluorescence based assay with full length MALT1 enzyme
T1 sequence (Q9UDY8 1-824): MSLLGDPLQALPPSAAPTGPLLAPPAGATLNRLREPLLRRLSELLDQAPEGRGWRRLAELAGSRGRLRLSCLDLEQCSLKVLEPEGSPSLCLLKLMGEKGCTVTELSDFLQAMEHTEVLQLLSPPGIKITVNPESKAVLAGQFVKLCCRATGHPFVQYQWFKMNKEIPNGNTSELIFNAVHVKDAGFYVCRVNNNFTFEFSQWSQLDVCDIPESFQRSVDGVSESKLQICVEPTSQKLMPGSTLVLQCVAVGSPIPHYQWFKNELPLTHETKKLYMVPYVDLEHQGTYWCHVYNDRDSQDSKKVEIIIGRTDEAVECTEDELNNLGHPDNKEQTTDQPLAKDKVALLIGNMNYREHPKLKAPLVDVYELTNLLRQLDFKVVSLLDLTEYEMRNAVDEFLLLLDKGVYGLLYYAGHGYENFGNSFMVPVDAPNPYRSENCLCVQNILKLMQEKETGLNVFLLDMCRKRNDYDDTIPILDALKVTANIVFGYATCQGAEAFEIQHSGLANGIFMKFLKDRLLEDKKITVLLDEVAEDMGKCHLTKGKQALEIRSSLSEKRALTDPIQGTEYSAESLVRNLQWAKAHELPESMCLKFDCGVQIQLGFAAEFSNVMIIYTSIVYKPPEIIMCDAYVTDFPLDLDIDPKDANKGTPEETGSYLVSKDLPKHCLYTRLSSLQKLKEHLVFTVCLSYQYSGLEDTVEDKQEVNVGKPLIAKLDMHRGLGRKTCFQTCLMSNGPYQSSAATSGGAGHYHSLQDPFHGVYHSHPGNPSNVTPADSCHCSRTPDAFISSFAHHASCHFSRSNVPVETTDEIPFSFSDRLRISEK
In short: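 Full-length MALT1 (100-300 ng/well) was pre-incubated with compound for 2 h at RT, then 100 μM Ac-LRSR-AMC was added for 4-12 h. Buffer was 50 mM MES, 150 mM NaCl, 0.1% CHAPS, 1 M ammonium citrate, 10 mM DTT, pH 7, with 0.5% DMSO. IC50 was derived from AMC fluorescence (ex 360/em 460 nm).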

`Cc1nc2c(C(C3CC3)N(C)C)c(NC(=O)Nc3cnc(-n4nccn4)c(C(F)(F)F)c3)cnc2s1` (stereo not shown) [Compound 76a, 1-(6-(2H-1,2,3-Triazol-2-yl)-5-(trifluoromethyl)pyridin-3-yl)-3-(7-(cyclopropyl(dimethylamino)methyl)-2-methylthiazolo[5,4-b]pyridin-6-yl)urea] showed an IC50 (OCI-Ly-10 cells) of 101 to 250 nM.
In the case of `Cc1nc2c(C3CC3)c(NC(=O)Nc3cnc(-n4ccnn4)c(Cl)c3)cnc2s1` [Compound 61, 1-(5-Chloro-6-(1H-1,2,3-triazol-1-yl)pyridin-3-yl)-3-(7-cyclopropyl-2-methylthiazolo[5,4-b]pyridin-6-yl)urea], the IC50 (OCI-Ly-10 cells) is reported as 501 to 1500 nM.
With `COCCN(C)c1c(NC(=O)Nc2cnc(OC)c(Cl)c2)cnc2sc(C)nc12` [Compound 45, 1-(5-Chloro-6-methoxypyridin-3-yl)-3-(7-((2-methoxyethyl)(methyl)amino)-2-methylthiazolo[5,4-b]pyridin-6-yl)urea] the IC50 (OCI-Ly-10 cells) was 501 to 1500 nM.
`COCC1CCCN(c2c(NC(=O)Nc3cnc(OC)c(Cl)c3)cnc3sc(C)nc23)C1` (single isomer, unassigned) [Compound 51b, 1-(5-chloro-6-methoxypyridin-3-yl)-3-(7-(3-(methoxymethyl)piperidin-1-yl)-2-methylthiazolo[5,4-b]pyridin-6-yl)urea] gave an IC50 (OCI-Ly-10 cells) of 501 to 1500 nM.
In the case of `COc1nc(-n2ccnn2)c(Cl)cc1NC(=O)Nc1cnc2sc(C)nc2c1C(C)OC` (single isomer, unassigned) [Compound 91b, 1-(5-Chloro-2-methoxy-6-(1H-1,2,3-triazol-1-yl)pyridin-3-yl)-3-(7-(1-methoxyethyl)-2-methylthiazolo[5,4-b]pyridin-6-yl)urea], the IC50 (OCI-Ly-10 cells) is reported as 26 to 100 nM.
In the case of `Cc1nc2c(C3CC3)c(NC(=O)Nc3cc(C(F)(F)F)cn(C)c3=O)cnc2s1` [Compound 5, 1-(7-Cyclopropyl-2-methylthiazolo[5,4-b]pyridin-6-yl)-3-(1-methyl-2-oxo-5-(trifluoromethyl)-1,2-dihydropyridin-3-yl)urea], the IC50 [1] is reported as 101 to 500 nM and the IC50 (full length MALT1 enzyme) is reported as 101 to 500 nM.
For `CCc1nc2c(C(C)OC)c(NC(=O)Nc3ccc(-n4nccn4)c(Cl)c3)cnc2s1` (single isomer, unassigned) [Compound 233b, 1-(3-Chloro-4-(2H-1,2,3-triazol-2-yl)phenyl)-3-(2-ethyl-7-(1-methoxyethyl)thiazolo[5,4-b]pyridin-6-yl)urea], the IC50 [1] was 101 to 500 nM and the IC50 (full length MALT1 enzyme) was 1 to 50 nM.
For `COc1nc(-n2nccn2)c(Cl)cc1NC(=O)Nc1cnc2sc(C)nc2c1C(C)OC` (single isomer, unassigned) [Compound 90a, 1-(5-Chloro-2-methoxy-6-(2H-1,2,3-triazol-2-yl)pyridin-3-yl)-3-(7-(1-methoxyethyl)-2-methylthiazolo[5,4-b]pyridin-6-yl)urea], the IC50 [1] was 1 to 100 nM and the IC50 (full length MALT1 enzyme) was 1 to 50 nM.
`CCOC(C)c1c(NC(=O)Nc2cc(Cl)cnc2OC)cnc2sc(C)nc12` (single isomer, unassigned) [Compound 167b, 1-(5-Chloro-2-methoxypyridin-3-yl)-3-(7-(1-ethoxyethyl)-2-methylthiazolo[5,4-b]pyridin-6-yl)urea] was tested, and the IC50 [1] was 1 to 100 nM and the IC50 (full length MALT1 enzyme) was 51 to 100 nM.
`Cc1nc2c(N3CCC(C)CC3)c(NC(=O)Nc3cnc(-n4nccn4)c(Cl)c3)cnc2s1` [Compound 37, 1-(5-Chloro-6-(2H-1,2,3-triazol-2-yl)pyridin-3-yl)-3-(2-methyl-7-(4-methylpiperidin-1-yl)thiazolo[5,4-b]pyridin-6-yl)urea] gave an IC50 [1] of 101 to 500 nM and an IC50 (full length MALT1 enzyme) of 51 to 100 nM.
`COC(C)c1c(NC(=O)Nc2ccc(-n3nccn3)c(C#N)c2)cnc2sc(C)nc12` (single isomer, unassigned) [Compound 208b, (S) or (R)-1-(3-Cyano-4-(2H-1,2,3-triazol-2-yl)phenyl)-3-(7-(1-methoxyethyl)-2-methylthiazolo[5,4-b]pyridin-6-yl)urea] showed an IC50 (OCI-Ly-10 cells) of 101 to 250 nM.
`Cc1nc2c(C3(C)CC3)c(NC(=O)Nc3ccc(-n4nccn4)c(Cl)c3)cnc2s1` [Compound 179, 1-(3-Chloro-4-(2H-1,2,3-triazol-2-yl)phenyl)-3-(2-methyl-7-(1-methylcyclopropyl)thiazolo[5,4-b]pyridin-6-yl)urea] gave an IC50 [1] of 1 to 100 nM and an IC50 (full length MALT1 enzyme) of 1 to 50 nM.
With `Cc1nc2c(C3CC3)c(NC(=O)Nc3cnc(N4CCCS4(=O)=O)c(C(F)(F)F)c3)cnc2s1` [Compound 23, 1-(7-Cyclopropyl-2-methylthiazolo[5,4-b]pyridin-6-yl)-3-(6-(1,1-dioxidoisothiazolidin-2-yl)-5-(trifluoromethyl)pyridin-3-yl)urea] the IC50 [1] was 101 to 500 nM and the IC50 (full length MALT1 enzyme) was 51 to 100 nM.
`Cc1nc2c(C(C)C)c(NC(=O)Nc3cnc(-n4nccn4)c(C(F)(F)F)c3)cnc2s1` [Compound 191, 1-(6-(2H-1,2,3-triazol-2-yl)-5-(trifluoromethyl)pyridin-3-yl)-3-(7-isopropyl-2-methylthiazolo[5,4-b]pyridin-6-yl)urea] gave an IC50 [1] of 1 to 100 nM and an IC50 (full length MALT1 enzyme) of 1 to 50 nM.
`Cc1ncn(-c2ccc(NC(=O)Nc3cnc4sc(C)nc4c3C3CC3)cc2C#N)n1` [Compound 171, 1-(3-Cyano-4-(3-methyl-1H-1,2,4-triazol-1-yl)phenyl)-3-(7-eyelopropyl-2-methylthiazolo[5,4-b]pyridin-6-yl)urea] gave an IC50 [1] of 101 to 500 nM and an IC50 (full length MALT1 enzyme) of 51 to 100 nM.
Molecule `COCC(CN(C)c1c(NC(=O)Nc2cnc(-n3nccn3)c(Cl)c2)cnc2sc(C)nc12)OC` (stereo not shown) [Compound 43, 1-(5-Chloro-6-(2H-1,2,3-triazol-2-yl)pyridin-3-yl)-3-(7-((2,3-dimethoxypropyl)(methyl)amino)-2-methylthiazolo[5,4-b]pyridin-6-yl)urea] has an IC50 (OCI-Ly-10 cells) of 26 to 100 nM.
For `COCC1(c2c(NC(=O)Nc3cnc(-n4nccn4)c(C(F)(F)F)c3)cnc3sc(C)nc23)CC1` [Compound 102, 1-(6-(2H-1,2,3-Triazol-2-yl)-5-(trifluoromethyl)pyridin-3-yl)-3-(7-(1-(methoxymethyl)cyclopropyl)-2-methylthiazolo[5,4-b]pyridin-6-yl)urea], the IC50 [1] was 1 to 100 nM and the IC50 (full length MALT1 enzyme) was 1 to 50 nM.
In the case of `Cc1nc2c(C(C)O)c(NC(=O)Nc3cnc(-n4nccn4)c(C(F)(F)F)c3)cnc2s1` (single isomer, unassigned) [Compound 71b, 1-(6-(2H-1,2,3-Triazol-2-yl)-5-(trifluoromethyl)pyridin-3-yl)-3-(7-(1-hydroxyethyl)-2-methylthiazolo[5,4-b]pyridin-6-yl)urea], the IC50 [1] is reported as 1 to 100 nM and the IC50 (full length MALT1 enzyme) is reported as 1 to 50 nM.
`COCC1CCCN(c2c(NC(=O)Nc3cnc(OC)c(Cl)c3)cnc3sc(C)nc23)C1` (racemic) [Compound 51, (ě)-1-(5-Chloro-6-methoxypyridin-3-yl)-3-(7-(3-(methoxymethyl)piperidin-1-yl)-2-methylthiazolo[5,4-b]pyridin-6-yl)urea] gave an IC50 [1] of 501 to 1500 nM and an IC50 (full length MALT1 enzyme) of 51 to 100 nM.
For `Cc1nc2c(C3CC3)c(NC(=O)Nc3cc(Cl)cnc3OCCN(C)C)cnc2s1` [Compound 195, 1-(5-Chloro-2-(2-(dimethylamino)ethoxy)pyridin-3-yl)-3-(7-cyclopropyl-2-methylthiazolo[5,4-b]pyridin-6-yl)urea], the IC50 [1] was 1 to 100 nM and the IC50 (full length MALT1 enzyme) was 51 to 100 nM.
For `COCCc1c(NC(=O)Nc2cnc(OC)c(Cl)c2)cnc2sc(C)nc12` [Compound 33, 1-(5-Chloro-6-methoxypyridin-3-yl)-3-(7-(2-methoxyethyl)-2-methylthiazolo[5,4-b]pyridin-6-yl)urea], the IC50 (OCI-Ly-10 cells) was 501 to 1500 nM.
